# US9862712B2, “Benzimidazole based EGFR inhibitors” (COUNCIL OF SCIENTIFIC & INDUSTRIAL RESEARCH, priority 2014, dated 2018)
# Tests used:
# [1] = test system: MCF-7 Cell line; test: MTT cell proliferation assay, MCF-7 Cell line; type: cell-based; conditions: Homo sapiens, MCF7, 72 h, MTT; for viability at 0.01 µM: MCF-7, 0.01 μM; for viability at 0.1 µM: MCF-7, 0.1 μM; for viability at 2.5 µM: MCF-7, 2.5 μM; for viability at 5 µM: MCF-7, 5 μM; for viability at 10 µM: MCF-7, 10 μM
# Description: (§1) 1. Protocol Followed for Anti Cancer Activity and Results, Cell Proliferation Assays: Cell lines used herein were purchased from NCCS (National Center for Cell Sciences) Pune, India. Invitro Activity was performed in NCL (National Chemical Laboratory) Pune. Each cell line was plated in 96-well microtiter plates (10,000 cells per well), and serial dilutions of indicated compounds were added. At the end of the incubation period (72 h at 37° C.), cell viability was determined by a tetrazolium dye, MTT (3-(4,5-dimethylthiazol-2-yl)-2,5-diphenyl tetrazolium bromide) (Promega, USA). The formazan crystals were dissolved in DMSO, and the absorbance at 600 nm was recorded using an ELISA plate reader. IC50 values were calculated using nonlinear regression and defined as the concentration needed for a 50% reduction in absorbance of treated versus untreated control cells.
# Table 4 indicates anticancer activity against A549 Cell line. The Gefitinib was used as standard and % cell Viable was measured compared to control. The procedure used was MTT assay as mentioned. […] By using the above procedure, the compounds of the invention were tested on MCF-7 Cell line and the results obtained are presented below in table 5, Refer FIG. 2.
# [2] = test system: HOP-62 Cell line; test: MTT cell proliferation assay, HOP-62 Cell line; type: cell-based; conditions: Homo sapiens, 72 h, MTT; for viability at 0.01 µM: HOP-62, 0.01 μM; for viability at 0.1 µM: HOP-62, 0.1 μM; for viability at 2.5 µM: HOP-62, 2.5 μM; for viability at 5 µM: HOP-62, 5 μM; for viability at 10 µM: HOP-62, 10 μM
# Description: as §1
# By using the above procedure, the compounds of the invention were tested on HOP-62 Cell line and the results obtained are presented below in table 6, Refer FIG. 3.
# [3] = test system: MDA-MB-436 Cell line; test: MTT cell proliferation assay, MDA-MB-436 Cell line; type: cell-based; conditions: Homo sapiens, 72 h, MTT; for viability at 0.01 µM: MDA-MB-436, 0.01 μM; for viability at 0.1 µM: MDA-MB-436, 0.1 μM; for viability at 2.5 µM: MDA-MB-436, 2.5 μM; for viability at 5 µM: MDA-MB-436, 5 μM; for viability at 10 µM: MDA-MB-436, 10 μM
# Description: as §1
# By using the above procedure, the compounds of the invention were tested on MDA-MB-436 Cell line and the results obtained are presented below in table 7, Refer FIG. 4.
# [4] = test system: A549 Cell line (Lung Cancer Cell line); test: MTT cell proliferation assay, A549 Cell line; type: cell-based, human; conditions: Homo sapiens, 72 h, MTT; for viability at 0.01 µM: A549, 0.01 μM; for viability at 0.1 µM: A549, 0.1 μM; for viability at 2.5 µM: A549, 2.5 μM; for viability at 5 µM: A549, 5 μM; for viability at 10 µM: A549, 10 μM
# Description: as §1
# By using the above procedure, the compounds of the invention were tested on A549 Cell line and the results obtained are presented below in table 4, Refer FIG. 1.
# [5] = test system: U87MG Cell line (Glioblastoma cell line); test: MTT cell proliferation assay, U87MG Cell line; type: cell-based; conditions: Homo sapiens, U-87 MG, U87MG, 72 h, MTT
# Description: as §1
# By using the above procedure, the compounds of the invention were tested on U87MG Cell line (glioblastoma cell line) and the results obtained are presented below in table 8, Refer FIG. 5.
Structure (SMILES),viability at 0.01 µM [1] [%],viability at 0.1 µM [1] [%],viability at 2.5 µM [1] [%],viability at 5 µM [1] [%],viability at 10 µM [1] [%],viability at 0.01 µM [2] [%],viability at 0.1 µM [2] [%],viability at 2.5 µM [2] [%],viability at 5 µM [2] [%],viability at 10 µM [2] [%],viability at 0.01 µM [3] [%],viability at 0.1 µM [3] [%],viability at 2.5 µM [3] [%],viability at 5 µM [3] [%],viability at 10 µM [3] [%],viability at 0.01 µM [4] [%],viability at 0.1 µM [4] [%],viability at 2.5 µM [4] [%],viability at 5 µM [4] [%],viability at 10 µM [4] [%],further results
"COc1cc2ncnc(Nc3ccc(F)c(Cl)c3)c2cc1OCCCN1CCOCC1 [Gefitinib, reference compound]",55.2,43.7,35.3,29.3,20.3,55.2,43.7,35.3,29.3,20.3,55.2,43.7,35.3,29.3,20.3,,,,,,
"Nc1nc(Nc2cccc(C(F)(F)F)c2)sc1-c1nc2ccccc2[nH]1 [Molecule S4-M8, 5-(1H-benzo[d]imidazol-2-yl)-N2-(3-(trifluoromethyl)phenyl)thiazole-2,4-diamine]",98.6,90.8,82.6,79.6,69.6,99.6,90.8,89.6,81.6,80.6,101,99.8,98.6,97.6,97.6,98.6,88.8,76.6,68.6,59.6,viability at 0.01 µM [5]: 86.6%; viability at 0.1 µM [5]: 73.8%; viability at 2.5 µM [5]: 61.6%; viability at 5 µM [5]: 54.6%; viability at 10 µM [5]: 41.6%
"Cc1ccc(Nc2nc(N)c(-c3nc4ccccc4[nH]3)s2)cc1 [Molecule S4-M9, 5-(1H-benzo[d]imidazol-2-yl)-N2-p-tolylthiazole-2,4-diamine]",100,98.8,96.3,96.3,96.6,123,101,100,98.3,90.8,91,85.8,79.3,69.3,54.6,89,79.8,68.3,57.3,48.3,viability at 0.01 µM [5]: 99.4%; viability at 0.1 µM [5]: 99.9%; viability at 2.5 µM [5]: 99.4%; viability at 5 µM [5]: 98.6%; viability at 10 µM [5]: 96.9%
"Cc1ccc2[nH]c(-c3sc(Nc4ccccc4)nc3N)nc2c1 [Molecule S4-M10, 5-(5-methyl-1H-benzo[d]imidazol-2-yl)-N2-phenylthiazole-2,4-diamine]",141,120,104,100,100,104,100,99.4,95.4,89.4,92.9,84,76.4,61.4,49.4,90.9,81,70.4,61.4,49.4,viability at 0.01 µM [5]: 88.9%; viability at 0.1 µM [5]: 75%; viability at 2.5 µM [5]: 68.4%; viability at 5 µM [5]: 55.4%; viability at 10 µM [5]: 41.4%
"COc1ccc(Nc2nc(N)c(-c3nc4cc(C)ccc4[nH]3)s2)cc1 [Molecule S4-M11, N^2-(4-methoxyphenyl)-5-(5-methyl-1H-benzo[d]imidazol-2-yl)thiazole-2,4-diamine]",157,133,110,101,101,157,101,98.2,96.8,91.8,96.8,92.7,84.2,73.8,61.8,94.8,80.7,72.8,63.8,51.8,viability at 0.01 µM [5]: 86.8%; viability at 0.1 µM [5]: 71.7%; viability at 2.5 µM [5]: 60.2%; viability at 5 µM [5]: 49.8%; viability at 10 µM [5]: 38.8%
"Cc1ccc2[nH]c(-c3sc(Nc4ccc(Cl)cc4)nc3N)nc2c1 [Molecule S4-M12, N^2-(4-chlorophenyl)-5-(5-methyl-1H-benzo[d]imidazol-2-yl)thiazole-2,4-diamine]",99.1,91.4,85.9,74.9,70.8,102,95.4,92.9,85.9,79.9,94.1,89.4,79.9,65.9,51.8,93.1,81.4,69.9,58.9,49.9,viability at 0.01 µM [5]: 92.1%; viability at 0.1 µM [5]: 81.4%; viability at 2.5 µM [5]: 73.9%; viability at 5 µM [5]: 61.9%; viability at 10 µM [5]: 49.8%
"Cc1ccc2[nH]c(-c3sc(Nc4cccc(C(F)(F)F)c4)nc3N)nc2c1 [Molecule S4-M13, N^2-(3-(trifluoromethyl)phenyl)-5-(5-methyl-1H-benzo[d]imidazol-2-yl)thiazole-2,4-diamine]",99.4,92.9,81.4,72.6,66.9,99.4,96.9,90.4,80.6,75.6,98.4,96.9,97.4,97.6,97.9,99.4,82.9,73.6,61.6,50.6,viability at 0.01 µM [5]: 95.8%; viability at 0.1 µM [5]: 83.7%; viability at 2.5 µM [5]: 71.2%; viability at 5 µM [5]: 60.8%; viability at 10 µM [5]: 53.8%
"Cc1ccc(Nc2nc(N)c(-c3nc4cc(C)ccc4[nH]3)s2)cc1 [Molecule S4-M14, 5-(5-methyl-1H-benzo[d]imidazol-2-yl)-N2-p-tolylthiazole-2,4-diamine]",94,90.1,83.6,69.3,65.1,101,95.1,93.6,88.3,80.1,99,98.1,98.6,99.3,94.1,96,84.1,71.1,62.1,51.1,viability at 0.01 µM [5]: 87%; viability at 0.1 µM [5]: 78.1%; viability at 2.5 µM [5]: 67.6%; viability at 5 µM [5]: 53.3%; viability at 10 µM [5]: 46.1%
